The values that follow come from ChEMBL document CHEMBL1135341, “Analogue based design of MMP-13 (Collagenase-3) inhibitors” (Bioorg Med Chem Lett, 2002).

This test has as its target Collagenase 3 (Homo sapiens, UniProt P45452). Put plainly: Inhibitory activity against recombinant human matrix metalloprotease-13.

With `COCCOCCC#CCC(NS(=O)(=O)c1ccc(-c2ccc(OC)cc2)cc1)C(=O)O` (configuration not stated), the IC50 (as a rule, the concentration that inhibits the measured activity by half) is 87.1 nM.
Turning to `O=C(O)C(CC#Cc1ccccc1)NS(=O)(=O)c1ccc(C#Cc2ccccc2)cc1` (configuration not stated), the IC50 was 89.1 nM.
